Experimental data from ChEMBL document CHEMBL1649196, “Comparative in vitro susceptibilities of human mycoplasmas and ureaplasmas to a new investigational ketolide, CEM-101” (2009).
In brackets after ≈: the same amount, converted by molar mass.

Assays:
Assay type in all cases: functional
Mycoplasma genitalium = test: Antimicrobial activity against Mycoplasma genitalium isolated from human by two fold serial dilution method; settings: Mycoplasmoides genitalium
Mycoplasma fermentans = test: Antimicrobial activity against Mycoplasma fermentans isolated from human by two fold serial dilution method; settings: Mycoplasmopsis fermentans
Ureaplasma parvum = test: Antimicrobial activity against Ureaplasma parvum isolated from human by two fold serial dilution method
Metamycoplasma hominis = test: Antimicrobial activity against Mycoplasma hominis isolated from human by two fold serial dilution method
Ureaplasma urealyticum = test: Antimicrobial activity against Ureaplasma urealyticum isolated from human by two fold serial dilution method
[1] = test system: Mycoplasmoides pneumoniae; test: Antimicrobial activity against Mycoplasma pneumoniae isolated from human by two fold serial dilution method

Compound | MIC (Mycoplasma genitalium) [ng/mL] | MIC50 (Mycoplasma fermentans) [ng/mL] | MIC90 (Mycoplasma fermentans) [ng/mL] | MIC50 (Ureaplasma parvum) [ng/mL] | MIC90 (Ureaplasma parvum) [ng/mL] | MIC50 (Metamycoplasma hominis) [ng/mL] | MIC90 (Metamycoplasma hominis) [ng/mL] | MIC90 (Ureaplasma urealyticum) [ng/mL] | MIC50 [1] [ng/mL] | MIC90 [1] [ng/mL] | MIC (Metamycoplasma hominis) [ng/mL] | MIC (Mycoplasma fermentans) [ng/mL] | MIC50 (Ureaplasma urealyticum) [ng/mL] | MIC (Ureaplasma urealyticum) [ng/mL]
CCC[C@@H]1C[C@@H](C(=O)N[C@@H]([C@H]2O[C@H](SC)[C@H](O)[C@@H](O)[C@H]2O)[C@H](C)Cl)N(C)C1 [CLINDAMYCIN] | – | 16 (≈ 37.6 nM) | 31 (≈ 72.9 nM) | – | – | ≤ 8 | 16 (≈ 37.6 nM) | – | – | – | ≤ 8 | – | – | –
CC[C@H]1OC(=O)[C@H](C)[C@@H](O[C@H]2C[C@@](C)(OC)[C@@H](O)[C@H](C)O2)[C@H](C)[C@@H](O[C@@H]2O[C@H](C)C[C@H](N(C)C)[C@H]2O)[C@](C)(O)C[C@@H](C)CN(C)[C@H](C)[C@@H](O)[C@]1(C)O [AZITHROMYCIN] | ≤ 0.032 | 500 (≈ 668 nM) | 500 (≈ 668 nM) | 2000 (≈ 2670 nM) | 4000 (≈ 5340 nM) | – | – | 4000 (≈ 5340 nM) | 0.25 (≈ 0.334 nM) | 0.5 (≈ 0.668 nM) | – | – | 2000 (≈ 2670 nM) | –
C[C@H]1COc2c(N3CCN(C)CC3)c(F)cc3c(=O)c(C(=O)O)cn1c23.C[C@H]1COc2c(N3CCN(C)CC3)c(F)cc3c(=O)c(C(=O)O)cn1c23.O [LEVOFLOXACIN] | 125 | 31 | 125 | 500 | 2000 | 250 | 500 | 1000 | 500 | 500 | – | – | 500 | 500
C[C@H]1c2cccc(O)c2C(=O)C2=C(O)[C@]3(O)C(=O)C(C(N)=O)=C(O)[C@@H](N(C)C)[C@@H]3[C@@H](O)[C@@H]21.O [DOXYCYCLINE] | ≤ 8 | 125 | 500 | 8000 | 16000 | 125 | 8000 | 16000 | 125 | 250 | – | – | 1000 | –

Continued, in another order:

MIC (Mycoplasma genitalium) [ng/mL] | MIC50 (Mycoplasma fermentans) [ng/mL] | MIC90 (Mycoplasma fermentans) [ng/mL] | MIC50 (Ureaplasma parvum) [ng/mL] | MIC90 (Ureaplasma parvum) [ng/mL] | MIC50 (Metamycoplasma hominis) [ng/mL] | MIC90 (Metamycoplasma hominis) [ng/mL] | MIC90 (Ureaplasma urealyticum) [ng/mL] | MIC50 [1] [ng/mL] | MIC90 [1] [ng/mL] | MIC (Metamycoplasma hominis) [ng/mL] | MIC (Mycoplasma fermentans) [ng/mL] | MIC50 (Ureaplasma urealyticum) [ng/mL] | Compound | MIC (Ureaplasma urealyticum) [ng/mL]
4000 (≈ 11900 nM) | 1000 (≈ 2960 nM) | 4000 (≈ 11900 nM) | > 256000 | > 256000 | 2000 (≈ 5930 nM) | 4000 (≈ 11900 nM) | > 256000 | 64000 (≈ 190000 nM) | 128000 (≈ 379000 nM) | – | – | – | CC(=O)NC[C@H]1CN(c2ccc(N3CCOCC3)c(F)c2)C(=O)O1 [LINEZOLID] | ≥ 256000
≤ 0.032 | ≤ 8 | ≤ 8 | 8 (≈ 9.47 nM) | 16 (≈ 18.9 nM) | 4 (≈ 4.73 nM) | 8 (≈ 9.47 nM) | 31 (≈ 36.7 nM) | 0.032 (≈ 0.0379 nM) | 0.125 (≈ 0.148 nM) | – | ≤ 8 | 8 (≈ 9.47 nM) | CC[C@H]1OC(=O)[C@@](C)(F)C(=O)[C@H](C)[C@@H](O[C@@H]2O[C@H](C)C[C@H](N(C)C)[C@H]2O)[C@](C)(OC)C[C@@H](C)C(=O)[C@H](C)[C@H]2N(CCCCn3cc(-c4cccc(N)c4)nn3)C(=O)O[C@]12C [SOLITHROMYCIN] | –
≤ 0.03 | ≤ 8 | 16 (≈ 19.7 nM) | 63 (≈ 77.6 nM) | 125 (≈ 154 nM) | 250 (≈ 308 nM) | 500 (≈ 616 nM) | 250 (≈ 308 nM) | 0.25 (≈ 0.308 nM) | 1 (≈ 1.23 nM) | – | – | 63 (≈ 77.6 nM) | CC[C@H]1OC(=O)[C@H](C)C(=O)[C@H](C)[C@@H](O[C@@H]2O[C@H](C)C[C@H](N(C)C)[C@H]2O)[C@](C)(OC)C[C@@H](C)C(=O)[C@H](C)[C@H]2N(CCCCn3cnc(-c4cccnc4)c3)C(=O)O[C@]12C [TELITHROMYCIN] | –
